According to ChEMBL document CHEMBL5532727, “The Inhibitors of Mucosa-Associated Lymphoid Tissue Lymphoma Translocation Protein 1 (MALT-1) Protease as Potential Treatment of ABC-DLBCL and Similar Diseases” (ACS Med Chem Lett, 2024):

Assay: Inhibition of IL-6 production in MALT-1 dependent human OCILY3 cells incubated for 48 hrs by AlphaLISA immunoassay
Assay type: functional, cell-based
Conditions: OCI-Ly3, 48 h

Compound	EC50
CO[C@H](C)c1c(Nc2ccc([C@H](N(C)C(=O)C3CCS(=O)(=O)CC3)C(F)(F)F)cc2)cnc2sc(C)nc12	70 nM
CO[C@@H](C)c1c(Nc2ccc([C@H](N(C)C(=O)C3CCS(=O)(=O)CC3)C(F)(F)F)cc2)cnc2sc(C(F)F)nc12	300 nM
CO[C@H](c1c(Nc2ccc([C@@H](C(F)F)N(C)C(=O)C3CCN(C(=O)CO)CC3)cc2)cnc2sc(C)nc12)C(F)F	440 nM
CO[C@@H](C)c1c(Nc2ccc([C@H](N(C)C(=O)C3CCS(=O)(=O)CC3)C(F)(F)F)cc2)cnc2sc(C)nc12	200 nM
CO[C@H](C)c1c(Nc2ccc([C@@H](C(F)F)N(C)C(=O)C3CCS(=O)(=O)CC3)cc2)cnc2sc(C)nc12	200 nM
CO[C@H](c1c(Nc2ccc([C@@H](C(F)F)N(C)C(=O)C3CCN(C(=O)CO)CC3)cc2)cnc2sc(C)nc12)C(F)(F)F	270 nM
CO[C@H](c1c(Nc2ccc([C@H](N(C)C(=O)C3CCN(C(C)=O)CC3)C(F)(F)F)cc2)cnc2sc(C)nc12)C(F)F	1150 nM
CO[C@@H](C)c1c(Nc2ccc([C@H](N(C)C(=O)C3CCN(C(=O)[C@H](O)CO)CC3)C(F)(F)F)cc2)cnc2sc(C)nc12	410 nM
CO[C@@H](c1c(Nc2ccc([C@H](N(C)C(=O)C3CCS(=O)(=O)CC3)C(F)(F)F)cc2)cnc2sc(C)nc12)C(F)F	340 nM
CO[C@H](c1c(Nc2ccc([C@H](N(C)C(=O)C3CCS(=O)(=O)CC3)C(F)(F)F)cc2)cnc2sc(C)nc12)C(F)F	140 nM
CO[C@@H](C)c1c(Nc2ccc([C@H](N(C)C(=O)C3CCN(C(=O)CCO)CC3)C(F)(F)F)cc2)cnc2sc(C)nc12	380 nM
Cc1nc2c([C@H](C)C(F)(F)F)c(Nc3ccc([C@H](N(C)C(=O)C4CCS(=O)(=O)CC4)C(F)(F)F)cc3)cnc2s1 (single isomer, unassigned)	40 nM
